Measured values as given in patent publication US10106515B2, “1-(cyclopent-2-en-1-yl)-3-(2-hydroxy-3-(arylsulfonyl)phenyl)urea derivatives as CXCR2 inhibitors” (GLAXOSMITHKLINE INTELLECTUAL PROPERTY DEVELOPMENT LIMITED, priority 2014, dated 2018).
Where a name gives a salt, the structure may show the parent alone. Read-outs that look alike come from different tables or passages of the source.

How the values were obtained:
recombinant human CXCR2 = biological target: T1, recombinant human CXCR2 (Homo sapiens, UniProt P25025); assay: CXCR2 Tango assay; assay type: cell-based; conditions: mean pIC50 of multiple test results; stimulated with 80 nM hCXCL1; reporter gene blue/green emission ratio; read-out: pIC50 (CXCR2 Tango assay) (converted)
T1 construct: TEV protease site; Gal4-VP16 transcription factor
T1 sequence (P25025 1-360): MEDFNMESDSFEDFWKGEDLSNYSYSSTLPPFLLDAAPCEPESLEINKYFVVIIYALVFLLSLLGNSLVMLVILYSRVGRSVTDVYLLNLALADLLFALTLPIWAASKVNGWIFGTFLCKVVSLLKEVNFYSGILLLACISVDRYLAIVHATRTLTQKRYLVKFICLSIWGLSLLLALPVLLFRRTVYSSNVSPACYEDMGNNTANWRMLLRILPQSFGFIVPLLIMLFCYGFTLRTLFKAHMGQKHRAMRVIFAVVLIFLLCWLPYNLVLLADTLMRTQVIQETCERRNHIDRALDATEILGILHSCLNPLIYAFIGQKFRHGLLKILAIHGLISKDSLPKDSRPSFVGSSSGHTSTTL
Procedure, shortened: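 A stable cell line carries human CXCR2 fused to a TEV site and Gal4-VP16, with protease-tagged arrestin. Cells (~10,000/well) were stimulated overnight at 37 °C with 80 nM hCXCL1 and a 10-point compound dilution. CCF4-AM beta-lactamase FRET (460/530 nm ratio) was read, normalized to hCXCL1 and DMSO, and mean pIC50 reported.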

[1] = test system: upregulation of CD11b in GROα stimulated neutrophils in human whole blood; assay: Human whole blood assay (CD11b upregulation); assay type: cell-based; conditions: Neutrophil, inhibition of CD11b upregulation, GROα 33 nM final, flow cytometry, read-out: pIC50 (human whole blood assay) (converted)
Experimental: The whole blood assay tested the compounds' ability to inhibit the upregulation of CD11b in GROα stimulated neutrophils in human whole blood.
Blood was withdrawn by venipuncture from consented adults and poured into a Sterilin tube containing an anti-coagulant Heparin (10 uL/mL of blood). All the test compounds were dissolved in DMSO to 4 mM and serial diluted across the plate, 1 in 3 to provide 10 point dose response curves. The compounds were then diluted 100 fold in -PBS [Phosphate buffered saline (without Calcium Chloride and Magnesium Chloride)] after which, 1 uL was dispensed in 96 U bottom Costar plates using an FX.
10 uL of blood was transferred to the compound plate using a multi-channel pipette, gently tapped and incubated for 15 minutes, at 37° C. After 15 minutes, the stimulant GROα was diluted to 100 nM in 0.1% BSA (Albumin Bovine Serum)-PBS and 5 uL is dispensed across the whole plate for a final concentration of 33 nM. The plate was gently tapped and incubated further for 15 minutes at 37° C. The plate was placed on ice for 1 minute before addition of 10 uL of an antibody cocktail consisting of CD11b-FITC (40 ug/mL) purchased from BioLegend (address: Cambridge Bioscience, Munro House, Trafalgar Way, Bar Hill, Cambridge, UK) and CD16-PE purchased from BD Pharmingen (address: The Danby Building, Edmung Halley Road, Oxford Science Park, Oxford, UK) (stock concentration 100 tests, 2 mL stock volume is diluted 1 in 5). The plate was placed on ice for 1 hour in the dark. The cells were then fixed using 200 uL/well of 1×FACS (Flow Activated Cell Sorting) Lyse solution (Becton and Dickinson-BD) and on ice for 20 minutes in the dark. The plate was centrifuged at 1600 rpm for 5 minutes and re-suspended with 200 uL of ice cold PBS. This step was repeated twice and on the final step the plate was re-suspended with 50 uL of ice cold -PBS for flow Cytometric analysis.
Samples were run on a Becton and Dickinson (BD)-Acurri C6 Flow Cytometer using a HyperCyt sampling apparatus (IntelliCyt) with a flow rate 2 uL/sec. CD11b upregulation is monitored in neutrophils and identified using a combination of both side scatter and CD16 expression.

SMILES	IC50 (recombinant human CXCR2) [nM]	IC50 [1] [nM]	IC50 ([1]; Homo sapiens) [nM]
CC1=CCCC1NC(=O)Nc1ccc(Cl)c(S(=O)(=O)C(C)C)c1O (stereo not shown) [Compound 20, 1-(4-chloro-2-hydroxy-3-(isopropylsulfonyl)phenyl)-3-(2-methylcyclopent-2-en-1-yl)urea]	≤ 1	25.1 to 2510	
CC1=CCC[C@H]1NC(=O)Nc1ccc(Cl)c(S(=O)(=O)C2(F)CCOCC2)c1O [Compound 75, (R)-1-(4-chloro-3-((4-fluorotetrahydro-2H-pyran-4-yl)sulfonyl)-2-hydroxyphenyl)-3-(2-methylcyclopent-2-en-1-yl)urea]	≤ 1	25.1 to 2510	
O=C(Nc1ccc(Cl)c(S(=O)(=O)[C@H]2C[C@@H](O)C2)c1O)NC1CCC=C1Cl (stereo partly drawn) [Compound 165, 1-(4-chloro-2-hydroxy-3-((cis-3-hydroxycyclobutyl)sulfonyl)phenyl)-3-(2-chlorocyclopent-2-en-1-yl)urea]	≤ 10	25.1 to 2510	
CO[C@H]1C[C@@H](S(=O)(=O)c2c(Cl)ccc(NC(=O)N[C@@H]3CCC=C3C)c2O)C1 [Compound 146, 1-(4-chloro-2-hydroxy-3-((cis-3-methoxycyclobutyl)sulfonyl)phenyl)-3-((R)-2-methylcyclopent-2-en-1-yl)urea]	≤ 1	25.1 to 2510	
CC1=CCC[C@H]1NC(=O)Nc1ccc(Cl)c(S(=O)(=O)[C@H]2C[C@H](N3CCCC3)C2)c1O [Compound 192, 1-(4-chloro-2-hydroxy-3-((trans-3-(pyrrolidin-1-yl)cyclobutyl)sulfonyl)phenyl)-3-((R)-2-methylcyclopent-2-en-1-yl)urea]	≤ 1		25.1 to 2510
CC1=CCC[C@H]1NC(=O)Nc1ccc(Cl)c(S(=O)(=O)C(C)(C)[C@H]2CCOC2)c1O [Compound 56, 1-(4-chloro-2-hydroxy-3-((2-((S)-tetrahydrofuran-3-yl)propan-2-yl)sulfonyl)phenyl)-3-((R)-2-methylcyclopent-2-en-1-yl)urea]	≤ 10	25.1 to 2510	
CC1=CCC[C@H]1NC(=O)Nc1ccc(Cl)c(S(=O)(=O)C2CCN(C3CCC3)CC2)c1O [Compound 82, (R)-1-(4-chloro-3-((1-cyclobutylpiperidin-4-yl)sulfonyl)-2-hydroxyphenyl)-3-(2-methylcyclopent-2-en-1-yl)urea trifluoroacetic acid salt]	≤ 1	25.1 to 2510	
CC1=CCCC1NC(=O)Nc1ccc(Cl)c(S(=O)(=O)C(C)(C)CF)c1O (stereo not shown) [Compound 104, 1-(4-chloro-3-((1-fluoro-2-methylpropan-2-yl)sulfonyl)-2-hydroxyphenyl)-3-(2-methylcyclopent-2-en-1-yl)urea]	≤ 10	25.1 to 2510	
CC1=CCC[C@H]1NC(=O)Nc1ccc(Cl)c(S(=O)(=O)C2CCCOC2)c1O (stereo partly drawn) [Compound 78, 1-(4-chloro-2-hydroxy-3-((tetrahydro-2H-pyran-3-yl)sulfonyl)phenyl)-3-((R)-2-methylcyclopent-2-en-1-yl)urea]	≤ 10	25.1 to 2510	
CC1=CCC[C@H]1NC(=O)Nc1ccc(Cl)c(S(=O)(=O)C2(C)CCOC2)c1O (stereo partly drawn) [Compound 68, 1-(4-chloro-2-hydroxy-3-((3-methyltetrahydro-furan-3-yl)sulfonyl)phenyl)-3-((R)-2-methylcyclopent-2-en-1-yl)urea]	≤ 10		25.1 to 2510
CC1=CCCC1NC(=O)Nc1ccc(Cl)c(S(=O)(=O)C2CCOCC2)c1O (stereo not shown) [Compound 110, 1-(4-chloro-2-hydroxy-3-((tetrahydro-2H-pyran-4-yl)sulfonyl)phenyl)-3-(2-methylcyclopent-2-en-1-yl)ureac]	≤ 10	25.1 to 2510	
CC1=CCC[C@H]1NC(=O)Nc1ccc(C#N)c(S(=O)(=O)C(C)(C)C(F)(F)F)c1O [Compound 31, (R)-1-(4-cyano-2-hydroxy-3-((1,1,1-trifluoro-2-methylpropan-2-yl)sulfonyl)phenyl)-3-(2-methylcyclopent-2-en-1-yl)urea]	≤ 1	25.1 to 2510	
CC1=CCC[C@H]1NC(=O)Nc1ccc(Cl)c(S(=O)(=O)N2CCN(C)CC2)c1O [Compound 141, (R)-1-(4-chloro-2-hydroxy-3-((4-methylpiperazin-1-yl)sulfonyl)phenyl)-3-(2-methylcyclopent-2-en-1-yl)urea, trifluoroacetic acid salt]	≤ 10	25.1 to 2510	
CC1=CCC[C@H]1NC(=O)Nc1ccc(Cl)c(S(=O)(=O)N2CCNCC2)c1O [Compound 199, (R)-1-(4-chloro-2-hydroxy-3-(piperazin-1-ylsulfonyl)phenyl)-3-(2-methylcyclopent-2-en-1-yl)urea, trifluoroacetic acid salt]	≤ 10	25.1 to 2510	
COC[C@@H](C)S(=O)(=O)c1c(Cl)ccc(NC(=O)N[C@@H]2CCC=C2C)c1O [Compound 122, 1-(4-chloro-2-hydroxy-3-(((R)-1-methoxypropan-2-yl)sulfonyl)phenyl)-3-((R)-2-methylcyclopent-2-en-1-yl)urea]	≤ 1	25.1 to 2510	
CC1(S(=O)(=O)c2c(Cl)ccc(NC(=O)N[C@@H]3CCC=C3Cl)c2O)CCOCC1 [Compound 40, (R)-1-(4-chloro-2-hydroxy-3-((4-methyltetrahydro-2H-pyran-4-yl)sulfonyl)phenyl)-3-(2-chlorocyclopent-2-en-1-yl)urea]	≤ 10	25.1 to 2510	
CC1=CCC[C@H]1NC(=O)Nc1ccc(Cl)c(S(=O)(=O)C2(CF)CCOCC2)c1O [Compound 72, (R)-1-(4-chloro-3-((4-(fluoromethyl)tetra-hydro-2H-pyran-4-yl)sulfonyl)-2-hydroxyphenyl)-3-(2-methylcyclopent-2-en-1-yl)urea]	≤ 10	25.1 to 2510	
CCN1CCC(F)(S(=O)(=O)c2c(Cl)ccc(NC(=O)N[C@@H]3CCC=C3Cl)c2O)CC1 [Compound 200, (R)-1-(4-chloro-3-((1-ethyl-4-fluoropiperidin-4-yl)sulfonyl)-2-hydroxphenyl)-3-(2-chlorocyclopent-2-en-1-yl)urea]	≤ 1	25.1 to 2510	
COC[C@H](C)S(=O)(=O)c1c(Cl)ccc(NC(=O)N[C@@H]2CCC=C2C)c1O [Compound 186, 1-(4-chloro-2-hydroxy-3-(((S)-1-methoxypropan-2-yl)sulfonyl)phenyl)-3-((R)-2-methylcyclopent-2-en-1-yl)urea]	≤ 1	25.1 to 2510	
CC1=CCC[C@H]1NC(=O)Nc1ccc(Cl)c(S(=O)(=O)C(C)(C)C2CCOC2)c1O (stereo partly drawn) [Compound 59, 1-(4-chloro-2-hydroxy-3-((2-(tetrahydrofuran-3-yl)propan-2-yl)sulfonyl)phenyl)-3-((R)-2-methylcyclopent-2-en-1-yl)urea]	≤ 1	25.1 to 2510	
CC1=CCCC1NC(=O)Nc1ccc(Cl)c(S(=O)(=O)N2CCN(C)CC2)c1O (stereo not shown) [Compound 142, 1-(4-chloro-2-hydroxy-3-((4-methylpiperazin-1-yl)sulfonyl)phenyl)-3-(2-methylcyclopent-2-en-1-yl)urea, trifluoroacetic acid salt]	≤ 10	25.1 to 2510	
CC1=CCC[C@H]1NC(=O)Nc1ccc(Cl)c(S(=O)(=O)[C@H]2C[C@H](N3CC[C@@H](F)C3)C2)c1O [Compound 49, trans-1-(4-chloro-3-((3-((R)-3-fluoropyrrolidin-1-yl)cyclobutyl)sulfonyl)-2-hydroxyphenyl)-3-((R)-2-methylcyclopent-2-en-1-yl)urea, trifluoroacetic acid salt]	≤ 1	25.1 to 2510	
[2H]C([2H])([2H])C1(S(=O)(=O)c2c(Cl)ccc(NC(=O)N[C@@H]3CCC=C3Cl)c2O)CCOCC1 [Compound 41]	≤ 1	25.1 to 2510	
